Data reported in patent US20170073337A1, “DIHYDROTHIAZINE AND DIHYDROOXAZINE DERIVATIVES HAVING BACE1 INHIBITORY ACTIVITY” (Shionogi & Co., Ltd., priority 2014, published 2017).
≈ marks a conversion by molar mass, not a printed value. Like-named read-outs stand apart in the source and are kept apart here.

How the values were obtained:
[1] = target: T1, CYP1A2 (Homo sapiens, UniProt P05177); assay: CYP inhibition test (CYP1A2); format: in vitro ADME; settings: pooled human liver microsomes; 7-ethoxyresorufin O-deethylation
T1 construct: The commercially available pooled human liver microsomes are used as an enzyme resource; from tissue; host or cells: pooled human liver microsomes
T1 sequence (P05177 1-516): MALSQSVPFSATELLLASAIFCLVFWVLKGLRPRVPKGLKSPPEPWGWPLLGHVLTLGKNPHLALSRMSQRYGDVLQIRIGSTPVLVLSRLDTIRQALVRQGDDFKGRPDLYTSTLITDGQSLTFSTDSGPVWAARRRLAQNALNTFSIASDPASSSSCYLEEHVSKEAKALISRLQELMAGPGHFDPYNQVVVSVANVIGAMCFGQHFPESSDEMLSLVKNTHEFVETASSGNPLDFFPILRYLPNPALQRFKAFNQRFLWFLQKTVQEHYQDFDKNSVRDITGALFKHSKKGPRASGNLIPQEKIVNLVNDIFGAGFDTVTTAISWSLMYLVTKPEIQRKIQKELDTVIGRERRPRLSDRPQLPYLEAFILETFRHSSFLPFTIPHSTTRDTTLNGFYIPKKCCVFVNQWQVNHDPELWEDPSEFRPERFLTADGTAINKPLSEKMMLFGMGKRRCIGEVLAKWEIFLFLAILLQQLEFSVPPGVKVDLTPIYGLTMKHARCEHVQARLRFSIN
How it was run: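 Inhibition of CYP1A2 was measured in commercially available pooled human liver microsomes (0.2 mg protein/mL) using 7-ethoxyresorufin O-deethylation with 0.5 μmol/L ethoxyresorufin. Test compound at 1, 5, 10, 20 μmol/L in […] Hepes buffer was incubated at 37° C. after NADPH addition; methanol/acetonitrile=1/1 (v/v) stopped the reaction, and resorufin was read fluorescently.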

[2] = target: T2, CYP2C19 (Homo sapiens, UniProt P33261); assay: CYP inhibition test (CYP2C19); format: in vitro ADME; settings: pooled human liver microsomes; mephenytoin 4′-hydroxylation
T2 construct: The commercially available pooled human liver microsomes are used as an enzyme resource; from tissue; host or cells: pooled human liver microsomes
How it was run: (§1)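 Pooled human liver microsomes (0.2 mg protein/mL) were incubated at 37 °C with NADPH, compound at 1, 5, 10, 20 μmol/L and marker substrates: tolbutamide 100 μmol/L (2C9), S-mephenytoin 50 μmol/L (2C19), dextromethorphan 5 μmol/L (2D6), terfenadine 1 μmol/L (3A4). Metabolites were measured by LC/MS/MS; IC50 came from logistic fitting against DMSO control.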

[3] = target: T3, CYP3A4 (Homo sapiens, UniProt P08684); assay: CYP inhibition test (CYP3A4); format: in vitro ADME; settings: pooled human liver microsomes; terfenadine hydroxylation
T3 construct: The commercially available pooled human liver microsomes are used as an enzyme resource; from tissue; host or cells: pooled human liver microsomes
How it was run: as §1

[4] = Solubility test; format: physicochemical
How it was run: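 Dissolved concentration determined by LC/MS or SPE/MS (absolute calibration) in diluted filtrates, after 2 μL of 10 mmol/L DMSO stock was added to 198 μL JP 1st or JP 2nd fluid and equilibrated either 1 h with shaking at room temperature or 16 h standing at 25 °C.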

[5] = Metabolic stability test; format: in vitro ADME; settings: human liver microsomes, 37° C., 30 minutes, NADPH
How it was run: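 Parent compound was measured by LC/MS/MS or SPE/MS after a methanol/acetonitrile quench and reported as % remaining, with the 0 min sample set to 100%. Incubations ran 30 min at 37 °C in pH 7.4 Tris buffer containing pooled human liver microsomes at 0.5 mg protein/mL and 1 mmol/L NADPH.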

[6] = target: T4, human ether-a-go-go related gene (hERG) channel (Homo sapiens, UniProt Q12809); assay: hERG test; format: cell-based; settings: % inhibition of IKr tail peak current at 3 uM; CHO cells expressing hERG
T4 construct: expressed in transfected cells; host or cells: CHO cells
How it was run: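 IKr was recorded from hERG-expressing CHO cells by automated whole-cell patch clamp at a holding potential of −80 mV. A −50 mV leak step was followed by a 2 s depolarization to +20 mV and a 2 s repolarization to −50 mV, when current was measured.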

[7] = JP 1st fluid, 25 °C, pH 1.2, simulated gastric fluid, kinetic from dmso stock, read-out: JP1
[8] = JP 2nd fluid A, 25 °C, pH 6.8, aqueous buffer, kinetic from dmso stock, read-out: JP2_μM
[9] = JP 1st fluid, pH 1.2, simulated gastric fluid, kinetic from dmso stock, read-out: JP1
[10] = JP 2nd fluid A, pH 6.8, aqueous buffer, kinetic from dmso stock, read-out: JP2_μM
[11] = solubility in JP 2nd fluid B, 1% DMSO, *2: shaken for 1 hour at room temperature, read-out: JP2_μM

T3 sequence (P08684 whole entry): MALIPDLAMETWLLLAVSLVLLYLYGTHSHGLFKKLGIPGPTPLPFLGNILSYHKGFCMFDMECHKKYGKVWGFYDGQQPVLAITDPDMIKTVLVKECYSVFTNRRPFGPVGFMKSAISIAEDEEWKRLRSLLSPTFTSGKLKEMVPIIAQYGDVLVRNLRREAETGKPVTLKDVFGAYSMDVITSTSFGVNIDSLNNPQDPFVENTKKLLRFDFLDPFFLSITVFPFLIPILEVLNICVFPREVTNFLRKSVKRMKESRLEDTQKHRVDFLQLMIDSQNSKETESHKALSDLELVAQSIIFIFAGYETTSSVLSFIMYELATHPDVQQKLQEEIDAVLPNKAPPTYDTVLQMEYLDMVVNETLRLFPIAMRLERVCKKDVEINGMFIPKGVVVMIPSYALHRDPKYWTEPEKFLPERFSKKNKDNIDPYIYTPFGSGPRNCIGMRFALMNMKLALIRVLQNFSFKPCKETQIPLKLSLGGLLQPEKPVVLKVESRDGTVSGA
T4 sequence (Q12809 whole entry): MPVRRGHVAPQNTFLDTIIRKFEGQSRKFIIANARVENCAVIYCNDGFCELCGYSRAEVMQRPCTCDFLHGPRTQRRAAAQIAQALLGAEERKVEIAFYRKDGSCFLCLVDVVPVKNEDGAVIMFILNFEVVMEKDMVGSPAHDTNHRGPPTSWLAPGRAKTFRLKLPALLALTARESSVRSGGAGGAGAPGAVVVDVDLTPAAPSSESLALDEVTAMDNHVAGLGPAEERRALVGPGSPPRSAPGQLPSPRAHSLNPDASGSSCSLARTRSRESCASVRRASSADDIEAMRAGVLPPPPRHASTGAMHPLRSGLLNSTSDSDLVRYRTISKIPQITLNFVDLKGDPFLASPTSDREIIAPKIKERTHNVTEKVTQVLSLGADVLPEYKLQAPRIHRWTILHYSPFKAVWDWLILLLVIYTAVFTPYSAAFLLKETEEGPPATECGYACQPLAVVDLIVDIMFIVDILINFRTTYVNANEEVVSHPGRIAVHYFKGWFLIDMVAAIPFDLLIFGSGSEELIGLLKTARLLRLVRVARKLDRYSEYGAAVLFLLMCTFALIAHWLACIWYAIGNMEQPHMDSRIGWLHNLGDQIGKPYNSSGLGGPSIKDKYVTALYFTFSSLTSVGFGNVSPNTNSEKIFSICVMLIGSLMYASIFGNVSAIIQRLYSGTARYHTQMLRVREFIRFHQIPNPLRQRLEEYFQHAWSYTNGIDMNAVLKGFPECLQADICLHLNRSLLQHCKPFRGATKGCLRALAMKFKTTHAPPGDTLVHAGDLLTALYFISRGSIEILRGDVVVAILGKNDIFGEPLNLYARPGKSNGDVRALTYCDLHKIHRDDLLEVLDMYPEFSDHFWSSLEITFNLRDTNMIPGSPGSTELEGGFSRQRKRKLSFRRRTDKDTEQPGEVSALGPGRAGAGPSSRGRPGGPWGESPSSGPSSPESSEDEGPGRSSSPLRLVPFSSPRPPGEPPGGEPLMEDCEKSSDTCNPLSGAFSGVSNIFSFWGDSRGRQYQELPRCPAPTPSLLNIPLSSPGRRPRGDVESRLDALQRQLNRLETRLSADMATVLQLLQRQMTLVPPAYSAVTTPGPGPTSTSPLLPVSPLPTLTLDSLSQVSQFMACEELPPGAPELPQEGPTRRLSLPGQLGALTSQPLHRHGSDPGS
T2 sequence (P33261 whole entry): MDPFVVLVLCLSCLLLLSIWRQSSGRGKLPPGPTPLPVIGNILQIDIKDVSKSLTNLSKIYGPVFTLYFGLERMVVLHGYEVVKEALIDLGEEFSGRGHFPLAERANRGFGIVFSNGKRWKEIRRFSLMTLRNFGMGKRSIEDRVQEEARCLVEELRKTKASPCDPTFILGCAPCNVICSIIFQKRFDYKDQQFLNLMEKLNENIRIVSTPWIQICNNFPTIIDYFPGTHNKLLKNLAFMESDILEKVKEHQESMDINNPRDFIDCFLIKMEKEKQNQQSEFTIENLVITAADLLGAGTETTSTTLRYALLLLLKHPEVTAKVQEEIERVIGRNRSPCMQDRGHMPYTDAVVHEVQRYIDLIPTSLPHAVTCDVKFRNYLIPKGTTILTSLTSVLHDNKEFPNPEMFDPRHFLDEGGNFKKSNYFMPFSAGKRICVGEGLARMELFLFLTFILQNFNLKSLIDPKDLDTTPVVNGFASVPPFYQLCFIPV

| SMILES | IC50 [1] | IC50 [2] | IC50 [3] | solubility kinetic at 16 h [4, 7] | solubility kinetic at 16 h [4, 8] | remaining % [5] | hERG_3 uM_% [6] | solubility kinetic at 1 h [4, 9] | solubility kinetic at 1 h [4, 10] | solubility kinetic at 16 h [4, 11] | solubility kinetic at 1 h ([4]; JP 2nd fluid B, pH 6.8, aqueous buffer, kinetic from dmso stock, read-out: JP2_μM) |
| --- | --- | --- | --- | --- | --- | --- | --- | --- | --- | --- | --- |
| C[C@H]1SC(N)=N[C@](C)(c2nc(NC(=O)c3ccc(F)cn3)ccc2F)[C@H]1F [Compound I-2] | ≥ 20 µM | ≥ 20 µM | ≥ 20 µM | 23.3 µM (≈ 9.21 µg/mL) | > 50 µM | 88% | 38.7% |  |  |  |  |
| C[C@]1(c2cc(NC(=O)c3cnc(OCF)cn3)ccc2F)N=C(N)OCC12CC(F)(F)C2 [Compound I-44] | ≥ 20 µM | ≥ 20 µM | ≥ 20 µM | 34 µM (≈ 15.4 µg/mL) | > 50 µM | 86.4% | 28.9% |  |  |  |  |
| C[C@H]1[C@@H](C(F)F)OC(N)=N[C@]1(C)c1cc(NC(=O)c2cnc(OCF)cn2)ccc1F [Compound I-33] | ≥ 20 µM | ≥ 20 µM | ≥ 20 µM |  |  | 87.5% | 21.9% | 39.4 µM (≈ 17.4 µg/mL) | > 50 µM |  |  |
| COc1ccc(C(=O)Nc2ccc(F)c([C@@]3(C)N=C(N)S[C@H](C)[C@@H]3F)c2)nn1 [Compound I-108] | ≥ 20 µM | ≥ 20 µM | ≥ 20 µM |  |  | 92.1% | 39.5% | > 50 µM |  | >50 µM |  |
| Cc1cc(C#N)cnc1C(=O)Nc1ccc(F)c([C@@]2(C)N=C(N)S[C@H](C)[C@@H]2F)c1 [Compound I-52] | ≥ 20 µM | ≥ 20 µM | ≥ 20 µM |  |  | 60.3% | 55.7% | > 50 µM |  |  | 13.9 µM (≈ 5.78 µg/mL) |
| Cc1nc(C(=O)Nc2ccc(F)c([C@@]3(C)N=C(N)O[C@H](C(F)(F)F)[C@@H]3C)c2)co1 [Compound I-32] | ≥ 20 µM | ≥ 20 µM | ≥ 20 µM | > 50 µM | > 50 µM | 94.6% | 15.2% |  |  |  |  |
| C[C@]1(c2cc(NC(=O)c3cnc(OCF)cn3)ccc2F)N=C(N)O[C@H](CF)[C@@H]1OCC(F)(F)F [Compound I-12] | ≥ 20 µM | ≥ 20 µM | ≥ 20 µM | 36.1 µM (≈ 18.3 µg/mL) | > 50 µM | 97.8% | 35.5% |  |  |  |  |
| COc1cnc(C(=O)Nc2ccc(F)c([C@@]3(C)N=C(N)S[C@H](C)[C@@H]3OC)c2)cn1 [Compound I-90] | ≥ 20 µM | ≥ 20 µM | ≥ 20 µM |  |  | 83.1% | 11.4% | > 50 µM |  | >50 µM |  |
| C[C@H]1SC(N)=N[C@](C)(c2cc(NC(=O)c3cnc(OC(F)F)cn3)ccc2F)[C@H]1F [Compound I-47] | ≥ 20 µM | ≥ 20 µM | ≥ 20 µM |  |  | 96.9% | 40.4% | > 50 µM | 30.5 µM (≈ 13.5 µg/mL) |  |  |
| C[C@H]1SC(N)=N[C@](C)(c2cc(NC(=O)c3ccc(F)cn3)ccc2F)[C@H]1F [Compound I-116] | ≥ 20 µM | ≥ 20 µM | ≥ 20 µM | > 50 µM | > 50 µM | 106% | 45.5% |  |  |  |  |
| C[C@H](F)[C@H]1OC(N)=N[C@](C)(c2cc(NC(=O)c3ccc(C#N)cn3)ccc2F)[C@H]1F [Compound I-13] | ≥ 20 µM | ≥ 20 µM | ≥ 20 µM | 39.6 µM (≈ 16.5 µg/mL) | > 50 µM | 101% | 52.8% |  |  |  |  |
